Source: patent publication US20260007758A1, “SO[…]-2 RECEPTOR (SST2R) NON-PEPTIDE DRUG CONJUGATES AND USES THEREOF” (Crinetics Pharmaceuticals, Inc., priority 2024, published 2026)

Tests used:
Assay type in all cases: cell-based
[1] = biological target: T1, SST2 (Homo sapiens, UniProt P30874); assay: PathHunter CHO-K1 SST2 Internalization Assay; conditions: PathHunter CHO-K1 SST2 cells; 90 min at 37 C; luminescence; read-out: Internalization EC50
T1 construct: host or cells: PathHunter CHO-K1 SST2 cells
Outline: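 Four-parameter nonlinear fits of background-corrected luminescence (duplicate means) gave IC50s. NDCs were serially diluted 1:3 over 11 points from a 10 uM final top concentration and incubated 90 min at 37 C with human SST2 CHO-K1 cells plated 48 h earlier at 2500/well. Beta-Glo read-out developed 60 min at RT.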

[2] = system: NCI-H524 human small cell lung cancer cells; assay: H524 assay: inhibition of cell proliferation (CellTiter Glo); conditions: 2 h treatment, washout, additional 70 h incubation
Outline: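 Proliferation was measured by CellTiter Glo 70 h after a washout that followed a 2 h pulse of NDC. Doses were an 11-point, two-fold dilution series from 1 uM. IC50 was fitted with a four-parameter model to luminescence-based % inhibition relative to control cells.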

[3] = biological target: T2, human somatostatin receptor subtype 2 (Homo sapiens, UniProt P30874); assay: Functional assay for SSTR2 agonists (HTRF cAMP); conditions: CHO-K1 cells stably expressing human SST2; NKH477-stimulated cAMP; 20 min at 37 C; read-out: hSST2 cAMP Avg EC50
T2 construct: expressed in transfected cells
Outline: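 Agonist activity read as fall in intracellular cAMP: HTRF 665/620 nm ratio regressed to a cAMP standard curve, EC50 fitted. Stable human SSTR2 CHO-K1 cells exposed 20 min at 37 °C to compound, final concentrations typically 0-10,000 nM.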

T2 sequence (P30874 whole entry): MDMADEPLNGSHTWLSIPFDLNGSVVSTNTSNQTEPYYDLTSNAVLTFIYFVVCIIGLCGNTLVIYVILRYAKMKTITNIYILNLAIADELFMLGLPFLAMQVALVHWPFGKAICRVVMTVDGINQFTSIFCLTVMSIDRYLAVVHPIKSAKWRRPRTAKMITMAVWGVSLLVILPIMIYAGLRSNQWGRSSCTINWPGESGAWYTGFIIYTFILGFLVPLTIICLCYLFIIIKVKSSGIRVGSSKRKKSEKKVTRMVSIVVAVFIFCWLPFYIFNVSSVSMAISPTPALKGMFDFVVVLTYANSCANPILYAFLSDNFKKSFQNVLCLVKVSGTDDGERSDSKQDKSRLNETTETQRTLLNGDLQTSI
T1 sequence (P30874 whole entry): as above

Compound	EC50 [1] [nM]	EC50 [2] [nM]	EC50 [3] [nM]
CC[C@H](C)[C@@H]([C@@H](CC(=O)N1CCC[C@H]1[C@H](OC)[C@@H](C)C(=O)N[C@H](C)[C@@H](O)c1ccccc1)OC)N(C)C(=O)[C@@H](NC(=O)[C@H](C(C)C)N(C)C(=O)OCc1ccc(NC(=O)[C@H](CCCNC(N)=O)NC(=O)[C@@H](NC(=O)C[C@@H](N)C(=O)NCCOCCC(=O)NCCNc2ncc(-c3cc(C)cc(F)c3)c(N3CCC(N)CC3)c2-c2nc3ccc(Cl)cc3[nH]2)C(C)C)c(O[C@@H](C)C(=O)O)c1)C(C)C [Compound 200]	3.9	23	0.18
CC[C@H](C)[C@@H]([C@@H](CC(=O)N1CCC[C@H]1[C@H](OC)[C@@H](C)C(=O)N[C@H](C)[C@@H](O)c1ccccc1)OC)N(C)C(=O)[C@@H](NC(=O)[C@H](C(C)C)N(C)C(=O)OCc1ccc(NC(=O)[C@H](CCCNC(N)=O)NC(=O)[C@@H](NC(=O)[C@H](CCC(=O)O)NC(=O)CCOCCC(=O)NCCNc2ncc(-c3cc(C)cc(F)c3)c(N3CCC(N)CC3)c2-c2nc3ccc(Cl)cc3[nH]2)C(C)C)cc1C(=O)NOCCN)C(C)C [Compound 90]	5.5	480	0.66
CC[C@H](C)[C@@H]([C@@H](CC(=O)N1CCC[C@H]1[C@H](OC)[C@@H](C)C(=O)N[C@H](C)[C@@H](O)c1ccccc1)OC)N(C)C(=O)[C@@H](NC(=O)[C@H](C(C)C)N(C)C(=O)OCc1ccc(NC(=O)[C@H](CCCNC(N)=O)NC(=O)[C@@H](NC(=O)CCOCCC(=O)NCCNc2ncc(-c3cc(C)cc(F)c3)c(N3CCC(N)CC3)c2-c2nc3ccc(Cl)cc3[nH]2)C(C)C)c(O[C@@H]2O[C@H](C(=O)NCCN)[C@@H](O)[C@H](O)[C@H]2O)c1)C(C)C [Compound 40]	8.7	1.7	0.2
CC[C@H](C)[C@@H]([C@@H](CC(=O)N1CCCC1[C@H](OC)[C@@H](C)C(=O)N[C@H](C)[C@@H](O)c1ccccc1)OC)N(C)C(=O)[C@@H](NC(=O)[C@H](C(C)C)N(C)C(=O)OCc1ccc(NC(=O)[C@H](CCCNC(N)=O)NC(=O)[C@@H](NC(=O)CCOCCC(=O)N(C)CC(=O)NCCNc2ncc(-c3cc(C)cc(F)c3)c(N3CCC(N)CC3)c2-c2nc3ccc(Cl)cc3[nH]2)C(C)C)c(OC)c1)C(C)C (stereo partly drawn) [Compound 198]	3.5	32	0.082
CC[C@H](C)[C@@H]([C@@H](CC(=O)N1CCC[C@H]1[C@H](OC)[C@@H](C)C(=O)N[C@H](C)[C@@H](O)c1ccccc1)OC)N(C)C(=O)[C@@H](NC(=O)[C@H](C(C)C)N(C)C(=O)OCc1ccc(NC(=O)[C@H](CCCNC(N)=O)NC(=O)[C@@H](NC(=O)CCOCCOCCOCCOCCC(=O)NCCNc2ncc(-c3cc(C)cc(F)c3)c(N3CCC(N)CC3)c2-c2nc3ccc(Cl)cc3[nH]2)C(C)C)cc1C(=O)N1CC(N)C1)C(C)C [Compound 59]	2	260	0.25
CC[C@H](C)[C@@H]([C@@H](CC(=O)N1CCC[C@H]1[C@H](OC)[C@@H](C)C(=O)N[C@H](C)[C@@H](O)c1ccccc1)OC)N(C)C(=O)[C@@H](NC(=O)[C@H](C(C)C)N(C)C(=O)OCc1ccc(NC(=O)[C@H](CCCNC(N)=O)NC(=O)[C@@H](NC(=O)CCOCCC(=O)N(C)CC(=O)NCCNc2ncc(-c3cc(C)cc(F)c3)c(N3CCC(N)CC3)c2-c2nc3ccc(Cl)cc3[nH]2)C(C)C)c(OCC(N)=O)c1)C(C)C [Compound 21]	7.6	13	0.096
CC[C@H](C)[C@@H]([C@@H](CC(=O)N1CCC[C@H]1[C@H](OC)[C@@H](C)C(=O)N[C@H](C)[C@@H](O)c1ccccc1)OC)N(C)C(=O)[C@@H](NC(=O)[C@H](C(C)C)N(C)C(=O)OCc1ccc(NC(=O)[C@H](CCCNC(N)=O)NC(=O)[C@@H](NC(=O)c2cc(NCCOCCOCCOCCC(=O)NCCNc3ncc(-c4cc(C)cc(F)c4)c(N4CCC(N)CC4)c3-c3nc4ccc(Cl)cc4[nH]3)cc(C(=O)OC)c2)C(C)C)cc1)C(C)C [Compound 178]	5.6	620	0.27
CC[C@H](C)[C@@H]([C@@H](CC(=O)N1CCC[C@H]1[C@H](OC)[C@@H](C)C(=O)N[C@H](C)[C@@H](O)c1ccccc1)OC)N(C)C(=O)[C@@H](NC(=O)[C@H](C(C)C)N(C)C(=O)OCc1ccc(NC(=O)[C@H](CCCNC(N)=O)NC(=O)[C@@H](NC(=O)CCOCCC(=O)N(C)CC(=O)NCCNc2ncc(-c3cc(C)cc(F)c3)c(N3CCC(N)CC3)c2-c2nc3ccc(Cl)cc3[nH]2)C(C)C)c(O[C@@H]2O[C@H](C(=O)NCCN(C)C)[C@@H](O)[C@H](O)[C@H]2O)c1)C(C)C [Compound 215]	7.8	5	0.14
CC[C@H](C)[C@@H]([C@@H](CC(=O)N1CCC[C@H]1[C@H](OC)[C@@H](C)C(=O)N[C@H](C)[C@@H](O)c1ccccc1)OC)N(C)C(=O)[C@@H](NC(=O)[C@H](C(C)C)N(C)C(=O)OCc1ccc(NC(=O)[C@H](CCCNC(N)=O)NC(=O)[C@@H](NC(=O)C[C@@H](N)C(=O)NCCOCCC(=O)NCCNc2ncc(-c3cc(C)cc(F)c3)c(N3CCC(NC)CC3)c2-c2nc3cc(F)cc(OC)c3[nH]2)C(C)C)c(O[C@@H]2O[C@H](C(=O)O)[C@@H](O)[C@H](O)[C@H]2O)c1)C(C)C [Compound 123]	2.3	8.4	0.2
CC[C@H](C)[C@@H]([C@@H](CC(=O)N1CCC[C@H]1[C@H](OC)[C@@H](C)C(=O)N[C@H](C)[C@@H](O)c1ccccc1)OC)N(C)C(=O)[C@@H](NC(=O)[C@H](C(C)C)N(C)C(=O)OCc1ccc(NC(=O)[C@H](CCCNC(N)=O)NC(=O)[C@@H](NC(=O)CCOCCC(=O)NCCNc2ncc(-c3cc(C)cc(F)c3)c(N3CCC(N)CC3)c2-c2nc3ccc(Cl)cc3[nH]2)C(C)C)c(O[C@@H]2O[C@H](C(=O)N(C)CCS(=O)(=O)O)[C@@H](O)[C@H](O)[C@H]2O)c1)C(C)C [Compound 218]	2.8	7	0.07
CC[C@H](C)[C@@H]([C@@H](CC(=O)N1CCC[C@H]1[C@H](OC)[C@@H](C)C(=O)N[C@H](C)[C@@H](O)c1ccccc1)OC)N(C)C(=O)[C@@H](NC(=O)[C@H](C(C)C)N(C)C(=O)OCc1ccc(NC(=O)[C@H](CCCNC(N)=O)NC(=O)[C@@H](NC(=O)CCOCCC(=O)NCCNc2ncc(-c3cc(C)cc(F)c3)c(N3CCC(N)CC3)c2-c2nc3c(F)c(F)ccc3[nH]2)C(C)C)c(O[C@@H]2O[C@H](C(=O)O)[C@@H](O)[C@H](O)[C@H]2O)c1)C(C)C [Compound 110]	23	120	1
CC[C@H](C)[C@@H]([C@@H](CC(=O)N1CCC[C@H]1[C@H](OC)[C@@H](C)C(=O)N[C@H](C)[C@@H](O)c1ccccc1)OC)N(C)C(=O)[C@@H](NC(=O)[C@H](C(C)C)N(C)C(=O)OCc1ccc(NC(=O)[C@H](CCCNC(N)=O)NC(=O)[C@@H](NC(=O)[C@H](CCC(=O)O)NC(=O)CCOCCC(=O)NCCNc2ncc(-c3cc(C)cc(F)c3)c(N3CCC(N)CC3)c2-c2nc3ccc(Cl)cc3[nH]2)C(C)C)cc1C(=O)NOC)C(C)C [Compound 89]	3.6	1100	0.57
CC[C@H](C)[C@@H]([C@@H](CC(=O)N1CCC[C@H]1[C@H](OC)[C@@H](C)C(=O)N[C@H](C)[C@@H](O)c1ccccc1)OC)N(C)C(=O)[C@@H](NC(=O)[C@H](C(C)C)N(C)C(=O)OCc1ccc(NC(=O)[C@H](CCCNC(N)=O)NC(=O)[C@@H](NC(=O)[C@H](Cc2c[nH]c3ccccc23)NC(=O)CCOCCC(=O)NCCNc2ncc(-c3cc(C)cc(F)c3)c(N3CCC(N)CC3)c2-c2nc3ccc(Cl)cc3[nH]2)C(C)C)cc1C(=O)NCCN)C(C)C [Compound 85]	3.6	73	0.72
